From publication PMC3816974 (Bioorganic & medicinal chemistry, 2013) come the findings set out here.

This assay deals with M. tuberculosis H37Rv. In kind it is cell-based, Mycobacterium tuberculosis. To be noted: for frequency of spontaneous resistance: M. tuberculosis H37Rv, 10× the MIC.

For `COc1ccc(C(=O)Nc2nc(-c3ccccn3)cs2)cc1` [Compound 44], the “resistance range of mutants above the MIC level of the parental strain” value is 2–8 fold and the “frequency of spontaneous resistance” value is ~ 10^−5.

In the case of `O=C(Nc1nc(-c2ccccn2)cs1)c1cccc(Br)c1` [Compound 52], the “resistance range of mutants above the MIC level of the parental strain” value is reported as 2–8 fold and the “frequency of spontaneous resistance” value was ~ 10^−5. For `CCc1cc(C(N)=S)ccn1` [ethionamide, reference compound], the “cross-resistance of mutants resistant to 44 and 52” value was “not to be cross-resistant”.
